Reference: patent US11426404B2, “Dosing of KRAS inhibitor for treatment of cancers” (AMGEN INC., priority 2019, dated 2022)
“And” between values parts separate entries of the source, which are not always exact repeats. Equal values may be shown once.

Assays:
KRAS p.G12C tumors [1] = settings: preclinical KRAS p.G12C models; cited from earlier work
clinical = settings: human, in vivo, po, 960 mg
KRAS p.G12C tumors [2] = assay: Treatment of immune-competent mice; format: in vivo
KRAS p.G12C tumors [3] = assay: Preclinical KRAS p.G12C tumor models; format: in vivo
[4] = system: patients with advanced solid tumors other than NSCLC and CRC
From the text: (§1) A subject undergoing a therapy is monitored for adverse events (AE) during the course of the therapy. A treatment related AE is an AE that is related to the treatment drug. A treatment emergent AE is one that a subject develops undergoing the treatment that was not present prior to start of therapy. In some cases, the treatment emergent AE is not or suspected not to be related to the treatment itself AEs are characterized as one of five grades—grade 1 is a mild AE; grade 2 is a moderate AE; grade 3 is a severe AE; grade 4 is a life-threatening or disabling AE; and grade 5 is death related to AE.
(§2) The grading of AEs is based on the guidelines provided in the CTCAE version 5.0. AEs for DLT assessment: Hematological toxicity: Febrile neutropenia; Neutropenic infection; Grade 4 neutropenia; Grade ≥3 thrombocytopenia for >7 days; Grade 3 thrombocytopenia with grade ≥2 bleeding; Grade 4 thrombocytopenia; Grade 4 Anemia
(§3) Non-hematological toxicity Grade ≥4, vomiting or diarrhea; Grade 3 diarrhea or grade 3 vomiting lasting more than 3 days despite optimal medical support; Grade ≥3 nausea for 3 days or more despite optimal medical support; Any other grade ≥3 AE

patients with CRC = assay: Phase 1 study, updated results (cutoff Jan. 8, 2020): adverse events in patients with CRC, N = 42; format: in vivo;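 further: values are patient incidence of adverse events, i.e. counts of patients experiencing each event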
From the text: as §1, §2, §3
All enrolled patients had received prior lines of systemic anticancer therapy.

SMILES: C=CC(=O)N1CCN(c2ncnc3c(F)c(-c4c(O)cccc4F)c(Cl)cc23)CC1 [ARS-1620]
- in vivo efficacy (KRAS p.G12C tumors [1]): demonstrates in vivo efficacy

SMILES: C=CC(=O)N1CCN(c2nc(=O)n(-c3c(C)ccnc3C(C)C)c3nc(-c4c(O)cccc4F)c(F)cc23)[C@@H](C)C1 [Compound A, 4-((S)-4-acryloyl-2-methylpiperazin-1-yl)-6-fluoro-7-(2-fluoro-6-hydroxyphenyl)-1-(2-isopropyl-4-methylpyridin-3-yl)pyrido[2,3-d]pyrimidin-2(1H)-one]
- AUC (clinical): 65.3 µg·h/mL
- AUC(0-t) (clinical): 140 µg·h/mL
- outcome in combination with immune checkpoint inhibition (KRAS p.G12C tumors [2]): durable cures
- effect in combination with chemotherapy and targeted agents (KRAS p.G12C tumors [3]): significantly improved the anti-tumor efficacy of chemotherapy and targeted agents
- toxicities associated with Compound A ([4]; other solid tumors): mild and manageable
- AEs leading to treatment discontinuation, All Treatment-Emergent AEs (TEAEs) ([4]; other solid tumors, N = 25): 3 (12.0) n (%)
- Any grade, All Treatment-Emergent AEs (TEAEs) ([4]; other solid tumors, N = 25): 20 (80.0) n (%)
- Any grade, All Treatment-Related TEAEs ([4]; other solid tumors, N = 25): 9 (36.0) n (%)
- Dose-limiting toxicities, All Treatment-Related TEAEs ([4]; other solid tumors, N = 25): 0 (0.0) n (%)
- Fatal AEs, All Treatment-Emergent AEs (TEAEs) ([4]; other solid tumors, N = 25): 4 (16.0) n (%)
- Fatal AEs, All Treatment-Related TEAEs ([4]; other solid tumors, N = 25): 0 (0.0) n (%)
- Grade ≥2, All Treatment-Emergent AEs (TEAEs) ([4]; other solid tumors, N = 25): 17 (68.0) n (%)
- Grade ≥2, All Treatment-Related TEAEs ([4]; other solid tumors, N = 25): 4 (16.0) n (%)
- Grade ≥3, All Treatment-Emergent AEs (TEAEs) ([4]; other solid tumors, N = 25): 15 (60.0) n (%)
- Grade ≥3, All Treatment-Related TEAEs ([4]; other solid tumors, N = 25): 2 (8.0) n (%)
- Grade ≥4, All Treatment-Emergent AEs (TEAEs) ([4]; other solid tumors, N = 25): 4 (16.0) n (%)
- Grade ≥4, All Treatment-Related TEAEs ([4]; other solid tumors, N = 25): 0 (0.0) n (%)
- Serious AEs, All Treatment-Emergent AEs (TEAEs) ([4]; other solid tumors, N = 25): 13 (52.0) n (%)
- Serious AEs, All Treatment-Related TEAEs ([4]; other solid tumors, N = 25): 1 (4.0) n (%)
- diarrhea, grade 3 treatment-related AE ([4]; out of 25 patients): 1 patients
- diarrhea, treatment-related TEAE ([4]; out of 25 patients): 2 patients
- fatigue, treatment-related TEAE ([4]; out of 25 patients): 2 patients
- pneumonia, grade 3 treatment-related AE ([4]; out of 25 patients): 1 patients
- tolerability (patients with CRC; CRC patients): well tolerated with mild treatment-related toxicities
- anemia, grade 3 treatment-related AE (patients with CRC; CRC, 42 patients): 1 patient
- diarrhea, grade 3 treatment-related AE (patients with CRC; CRC, 42 patients): 1 patient
- AEs leading to treatment discountinuation, Treatment-Emergent AEs (TEAEs) (patients with CRC; CRC, N = 42): 2 (4.8) n (%)
- AEs leading to treatment discountinuation, Treatment-related TEAEs (patients with CRC; CRC, N = 42): 0 (0.0) n (%)
- Anemia (treatment-related TEAE of any grade) (patients with CRC; CRC, N = 42): 2 (4.8) n (%)
- Any grade, Treatment-Emergent AEs (TEAEs) (patients with CRC; CRC, N = 42): 38 (90.5) n (%)
- Any grade, Treatment-related TEAEs (patients with CRC; CRC, N = 42): 20 n (%) and 20 (47.6) n (%)
- Blood creatine phosphokinase increase (treatment-related TEAE of any grade) (patients with CRC; CRC, N = 42): 2 (4.8) n (%)
- Diarrhea (treatment-related TEAE of any grade) (patients with CRC; CRC, N = 42): 8 (19.0) n (%)
- Dose-limiting toxicities, Treatment-related TEAEs (patients with CRC; CRC, N = 42): 0 (0.0) n (%)
- Fatal AEs, Treatment-Emergent AEs (TEAEs) (patients with CRC; CRC, N = 42): 3 (7.1) n (%)
- Fatal AEs, Treatment-related TEAEs (patients with CRC; CRC, N = 42): 0 (0.0) n (%)
- Fatigue (treatment-related TEAE of any grade) (patients with CRC; CRC, N = 42): 4 (9.5) n (%)
- Grade ≥2, Treatment-Emergent AEs (TEAEs) (patients with CRC; CRC, N = 42): 29 (69.0) n (%)
- Grade ≥2, Treatment-related TEAEs (patients with CRC; CRC, N = 42): 9 (21.4) n (%)
- Grade ≥3, Treatment-Emergent AEs (TEAEs) (patients with CRC; CRC, N = 42): 13 (31.0) n (%)
- Grade ≥3, Treatment-related TEAEs (patients with CRC; CRC, N = 42): 2 (4.8) n (%)
- Grade ≥4, Treatment-Emergent AEs (TEAEs) (patients with CRC; CRC, N = 42): 3 (7.1) n (%)
- Grade ≥4, Treatment-related TEAEs (patients with CRC; CRC, N = 42): 0 (0.0) n (%)
- Nausea (treatment-related TEAE of any grade) (patients with CRC; CRC, N = 42): 2 (4.8) n (%)
- Serious AEs, Treatment-Emergent AEs (TEAEs) (patients with CRC; CRC, N = 42): 10 (23.8) n (%)
- Serious AEs, Treatment-related TEAEs (patients with CRC; CRC, N = 42): 0 (0.0) n (%)
- Vomiting (treatment-related TEAE of any grade) (patients with CRC; CRC, N = 42): 2 (4.8) n (%)
